# According to patent US20160347739A1, “5-OXOPYRROLIDINE DERIVATIVES AS HIV INTEGRASE INHIBITORS” (priority 2014, published 2016):
# Entries after “also recorded” stand apart in the source; their conditions may differ.
# Target: T1, eGFP-MBP-IN-WT (HIV-1 integrase fusion protein) (Human immunodeficiency virus type 1 group M subtype B, UniProt P04585)
# T1 construct: as well as integrase wild type (eGFP-MBP-IN-WT) DNA plasmid; expressed in transfected cells; host or cells: HEK 293T cells; plasmid from Dr. Mark A. Muesing (Rockefeller University)
# Test: cellular integrase screening assay (C-terminal domain of HIV-1 IN nuclear import inhibition)
# Format: cell-based
# Conditions: HEK 293T cells transfected with eGFP-MBP-IN-WT plasmid; compounds at 10, 3.3, 1.1 and 0.33 μM, 0.1% DMSO; fluorescence microscopy
# Method: In assessing suitability of a compound according to any of the formulas herein, an integrase screening assay can be conducted. In the present case, an exemplary such assay is a cellular integrase assay. A cellular integrase assay can be performed in a 24 well plate. The assay is designed to test compounds in 3-fold serial dilutions (10, 3.3, 1.1 and 0.33 μM) with 0.1% DMSO. Negative and positive control included eGFP-MBP-IN-R262/3/6A, eGFP-MBP-IN-K236/240 and eGFP-MBP-IN-WT respectively supplemented with 0.1% DMSO. Refinement of the assay for optimal results is feasible. For example, refinement herein yields the following protocol. HEK 293T cells (˜0.4*10̂5 cells/ml) are seeded and incubated at 37° C. (5% CO2) for ˜3 days on Poly-L-lysine treated glass coverslips until 80-90% confluent (˜3.2*10̂5 cells/ml). […] Images may be prepared using an Olympus 1X51 fluorescence microscope equipped with a camera by way of example. […]
# As an integrase screening assay, a cellular integrase assay was performed in a 24 well plate. […] Slides were visualized and images, of at least 2 fields per glass disk, were taken with an Olympus 1X51 fluorescence microscope equipped with a camera. […]
substance,measurement,value
N-(3-ethoxy propyl)-1-[2-(5-methyl-1H-indol-3-yl)ethyl]-5-oxopyrrolidine [compound 209],localization phenotype of eGFP-MBP-IN-WT fusion protein (inhibition of nuclear import of IN),nuclear exclusion of the fusion protein; also recorded: exhibited inhibition against HIV to prevent nuclear import of the HIV integrase; also recorded: inhibition of nuclear import of IN
